Test results: PubChem BioAssay (NCI)
Values joined by “and” are separate entries in the source; they are usually repeats but may differ in a detail not shown here. Identical values can stand only once.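 1) Cells in 96-well plates. 2) Compound, 48 h, 5 concentrations. 3) Linear interpolation between surrounding doses. 4) Unreached endpoint = highest concentration. GI50 marks 50% less growth. TGI is the concentration that stops growth completely.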

Legend:
Test in all cases: inhibition of tumour cell growth, NCI panel, 48 h
[1] = system: A498 renal
[2] = system: CAKI-1 renal
[3] = system: CCRF-CEM leukemia
[4] = system: HCC-2998 colon
[5] = system: HCT-116 colon
[6] = system: K-562 leukemia
[7] = system: OVCAR-4 ovarian
[8] = system: RXF 393 renal
[9] = system: SR leukemia
[10] = system: UO-31 renal

Cc1cc(I)cc(CN(C)CCCN2CCCCCCC2)c1O
GI50 [1]: 17.2 µM | TGI [1]: 32.9 µM | GI50 [2]: 13.8 µM | TGI [2]: 28 µM | GI50 [3]: 6.22 µM | TGI [3]: 21.9 µM | GI50 [4]: 18.1 µM | TGI [4]: 36.8 µM | GI50 [5]: 11.8 µM | TGI [5]: 28.3 µM | GI50 [6]: 2.46 µM | TGI [6]: 23.8 µM | GI50 [7]: 19.7 µM | TGI [7]: 58.5 µM | GI50 [8]: 14.3 µM | TGI [8]: 35.1 µM | GI50 [9]: 2.11 µM | TGI [9]: 14.6 µM | GI50 [10]: 11.8 µM | TGI [10]: 26.2 µM

O/N=C/C1C(OCc2ccccc2)C(OCc2ccccc2)C(OCc2ccccc2)CN1Cc1ccccc1 (configuration not stated)
TGI [1]: > 100 µM | TGI [2]: > 100 µM | TGI [3]: 71.2 µM and > 100 µM | TGI [4]: > 100 µM | TGI [5]: 22.6 µM and > 100 µM | TGI [6]: 36.6 µM and > 100 µM | TGI [7]: > 100 µM | TGI [8]: 46.1 µM | GI50 [9]: 8.3 µM and 2 µM | TGI [9]: > 100 µM | GI50 [10]: 20 µM and 5.22 µM | TGI [10]: 65.9 µM and > 100 µM

CNC(=O)N(C)N=NCCCl
TGI [1]: > 100 µM | TGI [2]: > 100 µM | TGI [3]: > 100 µM | TGI [4]: > 100 µM | TGI [5]: > 100 µM | TGI [6]: > 100 µM | TGI [7]: > 100 µM | TGI [8]: > 100 µM | TGI [9]: > 100 µM | TGI [10]: > 100 µM

O=C1NC(=O)C(c2cnc3ccccn23)=C1c1cn2c3c(cc(F)cc13)CN(C(=O)N1CCCCC1)CC2
GI50 [1]: 0.0108 µM | TGI [1]: 11.5 µM | GI50 [2]: 1.24 µM | TGI [2]: > 37.7 µM | GI50 [3]: 2.69 µM | TGI [3]: 49.3 µM | GI50 [4]: 14.6 µM | TGI [4]: 32.8 µM | GI50 [5]: 3.35 µM | TGI [5]: > 89.8 µM | GI50 [6]: 3.39 µM | TGI [6]: > 100 µM | GI50 [7]: 1.5 µM | TGI [7]: > 63.4 µM | GI50 [8]: 0.0224 µM | TGI [8]: 14.7 µM | GI50 [9]: 1.84 µM | TGI [9]: 29.1 µM | GI50 [10]: 2.54 µM | TGI [10]: > 65.5 µM

CCC[CH2][Sn]1([CH2]CCC)[O]N=C(c2ccccc2)C(c2ccccc2)[O]1 (configuration not stated)
GI50 [1]: 2.59 µM | TGI [1]: 4.82 µM | GI50 [2]: 0.97 µM | TGI [2]: 2.4 µM | GI50 [3]: 0.29 µM | TGI [3]: 2.42 µM | GI50 [4]: 2.18 µM | TGI [4]: 4.47 µM | GI50 [5]: 1.67 µM | TGI [5]: 3.35 µM | GI50 [6]: 0.387 µM | TGI [6]: 2.38 µM | GI50 [7]: 2.13 µM | TGI [7]: 4.18 µM | GI50 [8]: 1.5 µM | TGI [8]: 2.87 µM | GI50 [9]: 0.574 µM | TGI [9]: 3.59 µM | GI50 [10]: 1.68 µM | TGI [10]: 3.46 µM

CC(C)c1ccccc1NC(=O)CCc1n[nH]c(=S)o1
TGI [1]: > 100 µM | TGI [2]: > 100 µM | TGI [3]: > 100 µM | TGI [4]: > 100 µM | TGI [5]: > 100 µM | TGI [6]: > 73.1 µM | TGI [7]: > 100 µM | TGI [8]: > 100 µM | TGI [9]: > 100 µM | TGI [10]: > 100 µM

CCCCCCNC(=O)c1cc(NCc2cc(O)ccc2O)ccc1O
GI50 [1]: 16.1 µM | TGI [1]: > 100 µM | GI50 [2]: 4.35 µM | TGI [2]: 18.5 µM | GI50 [3]: 0.409 µM | TGI [3]: 46.5 µM | GI50 [4]: 16.1 µM | TGI [4]: 31 µM | GI50 [5]: 4.75 µM | TGI [5]: 24.9 µM | GI50 [6]: 2.71 µM | TGI [6]: 12.8 µM | GI50 [7]: 5.62 µM | TGI [7]: 19.3 µM | GI50 [8]: 2.42 µM | TGI [8]: 8.03 µM | GI50 [9]: 2.88 µM | TGI [9]: > 100 µM | GI50 [10]: 1.22 µM | TGI [10]: 2.76 µM

CN(C)N=Nc1ccc(NC=O)cc1
TGI [1]: > 100 µM | TGI [2]: > 100 µM | TGI [3]: > 100 µM | TGI [4]: > 100 µM | TGI [5]: > 100 µM | TGI [6]: > 100 µM | TGI [7]: > 100 µM | TGI [8]: > 100 µM | TGI [9]: > 100 µM | TGI [10]: > 100 µM

CC(O)CCC(=O)c1ccoc1 (configuration not stated)
TGI [1]: 9940 µM | TGI [2]: 3930 µM | TGI [3]: > 9360 µM | TGI [4]: > 10000 µM | TGI [5]: > 8750 µM | TGI [6]: > 10000 µM | TGI [7]: > 7940 µM | TGI [8]: > 8310 µM | TGI [9]: > 10000 µM | TGI [10]: 9120 µM

COc1cc(C#CC(=O)OC/C=C/c2ccc3c(c2)OCO3)cc(OC)c1OC
TGI [1]: 21.5 µM | TGI [2]: 57 µM | TGI [3]: 49.3 µM | TGI [4]: 49.2 µM | TGI [5]: > 100 µM | TGI [6]: 58.1 µM | TGI [7]: > 100 µM | TGI [8]: 30.2 µM | TGI [9]: 40.5 µM | TGI [10]: 37 µM
